The term IC50 denotes the concentration that gives 50% inhibition. A low value points to greater potency.

This test concerns HDAC (nuclear fraction of Hela cells). As to the kind of experiment: Assay of enzyme inhibition of HDAC (BIOMOL Kit, fluorescence). Format: biochemical. Conditions: 30× diluted nuclear fraction of Hela cells; substrate 200 μM; 15 min at RT. The protocol: The in-vitro activity of HDAC inhibitors was assayed by means of a biochemical assay using a BIOMOL Kit, according to the instructions from the manufacturer (Biomolecular Research Laborator). Briefly, 15 μl of 30× diluted nuclear fraction of Hela cells, was diluted to 50 μl with the assay buffer containing the HDAC inhibitor and the substrate (lysine with acetylated amino on the side chain) at a concentration of 200 μM. The samples were incubated for 15 min at RT and then exposed to a developer (10 min at RT). In this last step a fluorophore was produced, whose fluorescence was measured using an excitation wavelength of 355 nm and an emission at 460 nm. The IC50 is calculated using GraphPad Software.
The reference HDAC inhibitors marked with (*) are those disclosed in the patent application WO2006/037761.
With `CN1CCN(c2cc(Cl)cc(C(=O)/C=C/c3cccc(/C=C/C(=O)NO)n3)c2)CC1` [Example 11, (E)-3-(6-{(E)-3-[3-Chloro-5-(4-methyl-piperazin-1-yl)-phenyl]-3-oxo-propenyl}-pyridin-2-yl)-N-hydroxy-acrylamide], the IC50 amounted to 29 nM.

The compound `O=C(/C=C/c1ccc(/C=C/C(=O)c2ccc(N3CCOCC3)cc2)c(F)c1)NO` [Ref (*) 29, reference compound] gave an IC50 of 2840 nM. `O=C(/C=C/c1ccc(/C=C/C(=O)c2ccc(N3CCOCC3)cc2)cc1)NO` [Ref (*) 41, reference compound] returned an IC50 of 1360 nM. `COc1cc(C(=O)/C=C/c2ccc(/C=C/C(=O)NO)cc2)ccc1CN1CCOCC1` [Ref (*) 48, reference compound] returned an IC50 of 73.3 nM. As for `O=C(/C=C/c1cccc(/C=C/C(=O)c2cccc(F)c2)c1)NO` [Ref (*)MC1653, reference compound], the figure is 1370 nM; as for `O=C(/C=C/c1cccc(/C=C/C(=O)c2ccccc2F)c1)NO` [Ref (*)MC1661, reference compound], 130 nM; as for `O=C(/C=C/c1cccc(/C=C/C(=O)c2ccccc2Cl)c1)NO` [Ref (*)MC1670, reference compound], 389 nM. As for `O=C(/C=C/c1cccc(/C=C/C(=O)c2cccc(Cl)c2)c1)NO` [Ref (*)MC1672, reference compound], the midpoint of inhibition, the IC50, lay at 1460 nM.

Source of the values: patent US20120115867A1, “NEW CLASS OF HISTONE DEACETYLASE INHIBITORS” (DAC S.R.L., priority 2004, published 2012).
